Results: the NIST ThermoML archive (doi:10.1016/j.jct.2009.05.006)

Experiments:
[1] = xn = mol fraction of the nth substance listed; conditions: 298.15 K, 101 kPa, Liquid, Vibrating tube method
[2] = excess molar enthalpy (molar enthalpy of mixing); xn = mol fraction of the nth substance listed; conditions: 298.15 K, 101 kPa, Liquid, Calvet calorimetry

BrCCBr [1,2-dibromoethane] + CCCCOC=O
Conditions | excess molar enthalpy, [2] [kcal/mol] | mass density, [1] [kg/m3]
x2 = 0.0489 | – | 2085.1
x2 = 0.0509 | 0.0098 | –
x2 = 0.0955 | – | 2008.94
x2 = 0.1197 | 0.0186 | –
x2 = 0.1401 | – | 1938.46
x2 = 0.1884 | – | 1864.18
x2 = 0.1992 | 0.027 | –
x2 = 0.2379 | – | 1790.7
x2 = 0.28 | 0.032 | –
x2 = 0.3095 | – | 1688.13
x2 = 0.3398 | – | 1646.07
x2 = 0.3511 | 0.0332 | –
x2 = 0.3993 | 0.0327 | 1565.68
x2 = 0.449 | 0.0315 | –
x2 = 0.4831 | 0.0299 | –
x2 = 0.5112 | – | 1422.24
x2 = 0.5504 | 0.027 | –
x2 = 0.5786 | – | 1340.18
x2 = 0.6334 | 0.022 | –
x2 = 0.641 | – | 1266.85
x2 = 0.7029 | – | 1196.55
x2 = 0.7275 | 0.016 | –
x2 = 0.7738 | – | 1118.89
x2 = 0.8087 | 0.0105 | –
x2 = 0.8358 | – | 1053.24
x2 = 0.9111 | 0.00406 | –
x2 = 0.9138 | – | 973.46

BrCCCCBr [1,4-dibromobutane] + CCCCOC(=O)CC
Conditions | excess molar enthalpy [kcal/mol] | mass density [kg/m3]
[1], x1 = 0.0993 | – | 1702.4
[1], x1 = 0.1484 | – | 1647.38
[1], x1 = 0.2006 | – | 1590.44
[1], x1 = 0.2485 | – | 1539.57
[1], x1 = 0.307 | – | 1478.88
[1], x1 = 0.3593 | – | 1426.19
[1], x1 = 0.4138 | – | 1372.46
[1], x1 = 0.4767 | – | 1312.32
[1], x1 = 0.5324 | – | 1260.38
[1], x1 = 0.5968 | – | 1201.95
[1], x1 = 0.6549 | – | 1150.66
[1], x1 = 0.721 | – | 1093.83
[1], x1 = 0.787 | – | 1038.79
[1], x1 = 0.8544 | – | 984.01
[1], x1 = 0.9302 | – | 924.33
[2], x2 = 0.0509 | 0.00574 | –
[2], x2 = 0.1183 | 0.00621 | –
[2], x2 = 0.196 | 0.00287 | –
[2], x2 = 0.275 | -0.00239 | –
[2], x2 = 0.3518 | -0.00765 | –
[2], x2 = 0.4473 | -0.0131 | –
[2], x2 = 0.4843 | -0.0151 | –
[2], x2 = 0.5517 | -0.0163 | –
[2], x2 = 0.6323 | -0.017 | –
[2], x2 = 0.7319 | -0.016 | –
[2], x2 = 0.8302 | -0.0124 | –
[2], x2 = 0.9193 | -0.0086 | –

CCCCOC(=O)CCC [butyl butanoate] + BrCCBr
[2]
Conditions | excess molar enthalpy [kcal/mol]
x1 = 0.0408 | 0.00621
x1 = 0.0978 | 0.0115
x1 = 0.1663 | 0.0139
x1 = 0.2361 | 0.0122
x1 = 0.2997 | 0.00765
x1 = 0.3488 | 0.00359
x1 = 0.4085 | -0.000478
x1 = 0.4847 | -0.00645
x1 = 0.5816 | -0.0115
x1 = 0.7159 | -0.0129
x1 = 0.8632 | -0.00884
x1 = 0.9347 | -0.00526

BrCCCBr [1,3-dibromopropane] + CCCCOC=O
Conditions | excess molar enthalpy [kcal/mol] | mass density [kg/m3]
[1], x2 = 0.055 | – | 1904.29
[1], x2 = 0.1095 | – | 1839
[1], x2 = 0.1626 | – | 1776.37
[1], x2 = 0.2171 | – | 1712.74
[1], x2 = 0.273 | – | 1648.68
[1], x2 = 0.3252 | – | 1589.49
[1], x2 = 0.5003 | – | 1397.08
[1], x2 = 0.5617 | – | 1331.4
[1], x2 = 0.6186 | – | 1271.46
[1], x2 = 0.6866 | – | 1200.91
[1], x2 = 0.8026 | – | 1082.84
[1], x2 = 0.8655 | – | 1020.08
[1], x2 = 0.9344 | – | 952.37
[2], x2 = 0.0631 | 0.0155 | –
[2], x2 = 0.1489 | 0.0306 | –
[2], x2 = 0.2355 | 0.0397 | –
[2], x2 = 0.3208 | 0.0435 | –
[2], x2 = 0.3958 | 0.0428 | –
[2], x2 = 0.4589 | 0.0409 | –
[2], x2 = 0.5144 | 0.0378 | –
[2], x2 = 0.5498 | 0.0356 | –
[2], x2 = 0.5621 | 0.0344 | –
[2], x2 = 0.6372 | 0.0289 | –
[2], x2 = 0.7237 | 0.0227 | –
[2], x2 = 0.8208 | 0.0143 | –
[2], x2 = 0.9151 | 0.00693 | –

BrCCCCCBr [1,5-dibromopentane] + CCCCOC(=O)CC
[2]
Conditions | excess molar enthalpy [kcal/mol]
x2 = 0.0697 | 0.00741
x2 = 0.1544 | 0.012
x2 = 0.248 | 0.0124
x2 = 0.3363 | 0.00884
x2 = 0.4134 | 0.00263
x2 = 0.4801 | -0.00526
x2 = 0.4924 | -0.00884
x2 = 0.5371 | -0.0131
x2 = 0.5511 | -0.0165
x2 = 0.6257 | -0.0206
x2 = 0.7153 | -0.021
x2 = 0.8183 | -0.016
x2 = 0.9151 | -0.00884
